According to patent US10800767B2, “Thyroid hormone receptor beta agonist compounds” (Terns, Inc., priority 2018, dated 2020):

Key:
[1] = molecular target: TR beta-LBD (thyroid hormone receptor beta) (Homo sapiens (Human), UniProt P10828); experiment: LanthaScreen TR-FRET Thyroid Receptor beta Coactivator Assay (agonist screening); assay type: biochemical; settings: for THRβ-Selectivity: THR beta over THR alpha, derived from T3-selectivity normalized data; for EC50: TR-FRET coactivator assay, TR beta-LBD 1.0 nM, 2 hour incubation, average of duplicate runs, read-out: EC50 THRβ-FRET
Method: (§1) Example B1: Time-Resolved Fluorescence Resonance Energy Transfer (TR-FRET) Assay for Thyroid Hormone Receptor Agonist Screening
(§2) LanthaScreen™ TR-FRET Thyroid Receptor alpha Coactivator Assay kit (ThermoFisher) and LanthaScreen™ TR-FRET Thyroid Receptor beta Coactivator Assay kit (ThermoFisher) were used for agonist compound screening. Compounds in DMSO were diluted using ECHO Liquid Handler (Labcyte Inc.) into 384 plates in 10-point 3-fold series in duplicate (5 micro M final top concentration). Buffer C (ThermoFisher) was added to each well before the 4× mixture of fluorescein-SCR2-2 coactivator (200 nM final concentration), Terbium-labeled anti-GST antibody (2 nM final concentration), and TR alpha-LBD (0.4 nM final concentration) or TR beta-LBD (1.0 nM final concentration) was added. After 2 hour incubation at room temperature in dark, the TR-FRET signal was measured on an EnVision plate reader (PerkinElmer) with excitation at 340 nm and dual emission readout at 495 and 520 nm with the delay time of 100 micro second and the integration time of 200 micro second. The ratio of emission signal at 520 and at 495 was used to calculate EC50 using GraphPad Prism (GraphPad Software). In every batch of compound screening, T3 (L-3,3′,5-Triiodothyronine sodium salt, >95%) (Calbiochem) was used as reference compound. The EC50 of T3 measured were within 3-fold of the reference value provided by the assay kit manufacturer (ThermoFisher Scientific). The Z′ factors measured in every batch of screening using T3 as high percent effect (HPE) control and 0.5% DMSO as zero percent effect (ZPE) control were in the range of 0.5 to 0.8. Compounds' THR-beta selectivity values are derived from T3-selectivity normalized data.

[2] = molecular target: TR alpha-LBD (thyroid hormone receptor alpha) (Homo sapiens (Human), UniProt P10827); experiment: LanthaScreen TR-FRET Thyroid Receptor alpha Coactivator Assay (agonist screening); assay type: biochemical; settings: TR alpha-LBD 0.4 nM, 2 hour incubation, average of duplicate runs, read-out: EC50 THRα-FRET
Method: as §1, §2

TR alpha-LBD (thyroid hormone receptor alpha), sequence (P10827 other isoform, or with tags, fused parts or gaps del 1-162, other chains not shown): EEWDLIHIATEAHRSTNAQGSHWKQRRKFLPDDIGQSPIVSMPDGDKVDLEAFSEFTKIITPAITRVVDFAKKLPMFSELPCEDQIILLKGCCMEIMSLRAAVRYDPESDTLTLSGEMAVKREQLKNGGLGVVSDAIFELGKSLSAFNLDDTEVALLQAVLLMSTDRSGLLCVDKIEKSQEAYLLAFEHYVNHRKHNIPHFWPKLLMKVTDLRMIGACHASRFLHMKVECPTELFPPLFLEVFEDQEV
TR beta-LBD (thyroid hormone receptor beta), sequence (P10828 217-461): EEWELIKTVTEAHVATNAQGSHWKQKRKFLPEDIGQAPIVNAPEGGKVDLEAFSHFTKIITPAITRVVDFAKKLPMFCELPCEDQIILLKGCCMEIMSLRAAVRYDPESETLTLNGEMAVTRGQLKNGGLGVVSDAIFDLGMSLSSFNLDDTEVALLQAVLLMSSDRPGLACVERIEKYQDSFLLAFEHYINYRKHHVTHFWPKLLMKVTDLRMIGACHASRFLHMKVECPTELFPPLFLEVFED

Row | THRβ-Selectivity [1] | EC50 [1] [nM] | EC50 [2] [nM] | Compound
1 | 7 | 896 | 2300 | CC(C)c1cc(Oc2c(Cl)cc(-c3cc(=O)[nH]o3)cc2Cl)n[nH]c1=O [Example 8, 5-(3,5-dichloro-4-((5-isopropyl-6-oxo-1,6-dihydropyridazin-3-yl)oxy)phenyl)isoxazol-3(2H)-one]
2 | 4.2 | 732 | 817 | CC(C)c1cc(Oc2c(Cl)cc(NC(C)c3noc(=O)[nH]3)cc2Cl)nn(C)c1=O (single isomer, unassigned) [Example 3-P2, 3-(1-((3,5-dichloro-4-((5-isopropyl-1-methyl-6-oxo-1,6-dihydropyridazin-3-yl)oxy)phenyl)amino)ethyl)-1,2,4-oxadiazol-5(4H)-one]
3 | >84.3 | 212 | > 5000 | CC(C)(O)c1cc(Oc2c(Cl)cc(NC(=O)c3noc(=O)[nH]3)cc2Cl)n[nH]c1=O [Example 33, N-(3,5-dichloro-4-((5-(2-hydroxypropan-2-yl)-6-oxo-1,6-dihydropyridazin-3-yl)oxy)phenyl)-5-oxo-4,5-dihydro-1,2,4-oxadiazole-3-carboxamide]
4 | 3.6 | 58.1 | 78 | CC(C)c1cc(Oc2c(Cl)cc(OCc3noc(=O)[nH]3)cc2Cl)nn(C)c1=O [Example 6, 3-((3,5-dichloro-4-((5-isopropyl-1-methyl-6-oxo-1,6-dihydropyridazin-3-yl)oxy)phenoxy)methyl)-1,2,4-oxadiazol-5(4H)-one]
5 | 48 | 46.6 | 549 | CC(C)c1cc(Cc2c(Cl)cc(NC(=O)c3noc(=O)[nH]3)cc2Cl)nn(C)c1=O [Example 14, N-(3,5-dichloro-4-((5-isopropyl-1-methyl-6-oxo-1,6-dihydropyridazin-3-yl)methyl)phenyl)-5-oxo-4,5-dihydro-1,2,4-oxadiazole-3-carboxamide]
6 |  | > 5000 | 1930 | CC(C)c1cc(S(=O)(=O)c2c(Cl)cc(NCc3noc(=O)[nH]3)cc2Cl)nn(C)c1=O [Example 19, 3-(((3,5-dichloro-4-((5-isopropyl-1-methyl-6-oxo-1,6-dihydropyridazin-3-yl)sulfonyl)phenyl)amino)methyl)-1,2,4-oxadiazol-5(4H)-one]
7 | 19.5 | 181 | 898 | Cn1nc(Cc2c(Cl)cc(NC(=O)c3noc(=O)[nH]3)cc2Cl)cc(C2CC2)c1=O [Example 22, N-(3,5-dichloro-4-((5-cyclopropyl-1-methyl-6-oxo-1,6-dihydropyridazin-3-yl)methyl)phenyl)-5-oxo-4,5-dihydro-1,2,4-oxadiazole-3-carboxamide]
8 | 27.9 | 450 | 4230 | CC[C@@H](O)c1cc(Oc2c(Cl)cc(NC(=O)c3noc(=O)[nH]3)cc2Cl)n[nH]c1=O [Example 32P1, (R)—N-(3,5-dichloro-4-((5-(1-hydroxypropyl)-6-oxo-1,6-dihydropyridazin-3-yl)oxy)phenyl)-5-oxo-4,5-dihydro-1,2,4-oxadiazole-3-carboxamide]
9 | >113 | 180 | > 5000 | O=C(Nc1cc(Cl)c(Cc2cc(C3CC3)c(=O)[nH]n2)c(Cl)c1)c1noc(=O)[nH]1 [Example 21, N-(3,5-dichloro-4-((5-cyclopropyl-6-oxo-1,6-dihydropyridazin-3-yl)methyl)phenyl)-5-oxo-4,5-dihydro-1,2,4-oxadiazole-3-carboxamide]
10 | 81 | 43.3 | 1150 | CC[C@H](O)c1cc(Oc2c(Cl)cc(NC(=O)c3noc(=O)[nH]3)cc2Cl)n[nH]c1=O [Example 32P2, (S)—N-(3,5-dichloro-4-((5-(1-hydroxypropyl)-6-oxo-1,6-dihydropyridazin-3-yl)oxy)phenyl)-5-oxo-4,5-dihydro-1,2,4-oxadiazole-3-carboxamide]
11 | 17.2 | 7.6 | 49.5 | CC(C)c1cc(Oc2c(Cl)cc(NCc3noc(=O)[nH]3)cc2Cl)nn(C)c1=O [Example 1, 3-(((3,5-dichloro-4-((5-isopropyl-1-methyl-6-oxo-1,6-dihydropyridazin-3-yl)oxy)phenyl)amino)methyl)-1,2,4-oxadiazol-5(4H)-one]
12 | 0.7 | 290 | 126 | CC(C)c1cc(Oc2c(Cl)cc(-c3noc(=O)[nH]3)cc2Cl)n[nH]c1=O [Example 9, 3-[3,5-dichloro-4-[(5-isopropyl-6-oxo-1H-pyridazin-3-yl)oxy]phenyl]-4H-1,2,4-oxadiazol-5-one]
13 | 21.5 | 26.8 | 144 | CC(C)c1cc(Oc2c(Cl)cc(NCc3noc(=O)[nH]3)c(F)c2Cl)nn(C)c1=O [Example 27, 3-(((3,5-dichloro-2-fluoro-4-((5-isopropyl-1-methyl-6-oxo-1,6-dihydropyridazin-3-yl)oxy)phenyl)amino)methyl)-1,2,4-oxadiazol-5(4H)-one]
14 | 77.9 | 86.4 | 1550 | CCC(O)c1cc(Oc2c(Cl)cc(NC(=O)c3noc(=O)[nH]3)cc2Cl)n[nH]c1=O (centres unmarked) [Example 32, N-(3,5-dichloro-4-((5-(1-hydroxypropyl)-6-oxo-1,6-dihydropyridazin-3-yl)oxy)phenyl)-5-oxo-4,5-dihydro-1,2,4-oxadiazole-3-carboxamide]
15 | 1.0 | 277 | 75.9 | CC(C)c1cc(Oc2c(Cl)cc(NC(C)c3noc(=O)[nH]3)cc2Cl)nn(C)c1=O (single isomer, unassigned) [Example 3-P1, 3-(1-((3,5-dichloro-4-((5-isopropyl-1-methyl-6-oxo-1,6-dihydropyridazin-3-yl)oxy)phenyl)amino)ethyl)-1,2,4-oxadiazol-5(4H)-one]
16 | 6.7 | 44.2 | 82.4 | CC(C)c1cc(Cc2c(Cl)cc(NCc3noc(=O)[nH]3)cc2Cl)nn(C)c1=O [Example 16, 3-(((3,5-dichloro-4-((5-isopropyl-1-methyl-6-oxo-1,6-dihydropyridazin-3-yl)methyl)phenyl)amino)methyl)-1,2,4-oxadiazol-5(4H)-one]
17 | 14.3 | 821 | 3110 | Cc1cc(NC(=O)c2noc(=O)[nH]2)cc(C)c1Cc1cc(C(C)C)c(=O)[nH]n1 [Example 30, N-(4-((5-isopropyl-6-oxo-1,6-dihydropyridazin-3-yl)methyl)-3,5-dimethylphenyl)-5-oxo-4,5-dihydro-1,2,4-oxadiazole-3-carboxamide]
18 | 67.3 | 87.3 | 1320 | CC(C)c1cc(Oc2c(Cl)cc(NC(=O)c3noc(=O)[nH]3)cc2Cl)n[nH]c1=O [Example 23, N-(3,5-dichloro-4-((5-isopropyl-6-oxo-1,6-dihydropyridazin-3-yl)oxy)phenyl)-5-oxo-4,5-dihydro-1,2,4-oxadiazole-3-carboxamide]
19 | >10.4 | 2640 | > 5000 | C[C@@H](O)c1cc(Oc2c(Cl)cc(NC(=O)c3noc(=O)[nH]3)cc2Cl)n[nH]c1=O [Example 29P1, (R)—N-(3,5-dichloro-4-((5-(1-hydroxyethyl)-6-oxo-1,6-dihydropyridazin-3-yl)oxy)phenyl)-5-oxo-4,5-dihydro-1,2,4-oxadiazole-3-carboxamide]
20 | >34.8 | 600 | > 5000 | O=C(Nc1cc(Cl)c(Oc2cc(C34CC(C3)C4)c(=O)[nH]n2)c(Cl)c1)c1noc(=O)[nH]1 [Example 31, N-(4-((5-(bicyclo[1.1.1]pentan-1-yl)-6-oxo-1,6-dihydropyridazin-3-yl)oxy)-3,5-dichlorophenyl)-5-oxo-4,5-dihydro-1,2,4-oxadiazole-3-carboxamide]
21 | >15.7 | 468 | > 5000 | CC(CO)c1cc(Oc2c(Cl)cc(NC(=O)c3noc(=O)[nH]3)cc2Cl)n[nH]c1=O (centres unmarked) [Example 36, N-(3,5-dichloro-4-((5-(1-hydroxypropan-2-yl)-6-oxo-1,6-dihydropyridazin-3-yl)oxy)phenyl)-5-oxo-4,5-dihydro-1,2,4-oxadiazole-3-carboxamide]
22 | 4.8 | 116 | 192 | Cc1c(NC(=O)c2noc(=O)[nH]2)cc(Cl)c(Oc2cc(C(C)C)c(=O)n(C)n2)c1Cl [Example 11, N-(3,5-dichloro-4-((5-isopropyl-1-methyl-6-oxo-1,6-dihydropyridazin-3-yl)oxy)-2-methylphenyl)-5-oxo-4,5-dihydro-1,2,4-oxadiazole-3-carboxamide]
